Results as given in the supplement of paper PMC10307832.

Experiments:
Assay in all cases: relative viability (nuclei count vs DMSO), 5 days (fraction); higher = more cells survive
[1] = compound: CCCS(=O)(=O)Nc1ccc(F)c(C(=O)c2c[nH]c3ncc(-c4ccc(Cl)cc4)cc23)c1F [Vemurafenib]
Summary of the method: (§1)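 Only plates meeting two conditions passed: control CV below 25% and at least one doubling. Lung cancer cell lines, kept overnight at 37 °C in 1536-well plates, were pinned with five library-drug doses (not always all listed) √10 apart on vehicle-anchored plates and grown 5 days without medium change. A one-step fix, permeabilisation and Hoechst stain preceded 4× imaging and MetaXpress nuclear counting. Viability equals treated-well nuclei divided by vehicle-well nuclei, as the median over plates.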

[2] = compound: COc1cccc2cc(-c3nc([C@H]4CC[C@H](C(=O)O)CC4)n4ncnc(N)c34)[nH]c12 [OSI-027]
Summary of the method: as §1

[3] = compound: CCCS(=O)(=O)Nc1ccc(F)c(C(=O)c2c[nH]c3ncc(-c4ccc(Cl)cc4)cc23)c1F [Vemurafenib] + COc1cc2c(Oc3ccc(NC(=O)C4(C(=O)Nc5ccc(F)cc5)CC4)cc3F)ccnc2cc1OCCCN1CCOCC1 [Foretinib] (partner 0.25 µM)
Summary of the method: (§2)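 A single step with final 0.05% Triton X-100, 1% formaldehyde and 1 ug/ml Hoechst fixed the cells and stained nuclei 5 days after treatment. Lung cancer cell lines in 1536-well plates had been treated by pin tool the day after seeding with one drug alone or a fixed anchor-drug dose plus five library-drug doses (not always all listed) in √10 steps, and nuclei were counted on 4× images. Relative viability is the ratio of nuclei in treated wells to nuclei in vehicle wells, taken as the median of duplicate plates.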

[4] = compound: COc1cccc2cc(-c3nc([C@H]4CC[C@H](C(=O)O)CC4)n4ncnc(N)c34)[nH]c12 [OSI-027] + CS(=O)(=O)CCNCc1ccc(-c2ccc3ncnc(Nc4ccc(OCc5cccc(F)c5)c(Cl)c4)c3c2)o1 [Lapatinib] (partner 2 µM)
Summary of the method: as §2

| Cell Line | relative viability ([1]; 0.03162 µM) | relative viability ([1]; 0.1 µM) | relative viability ([1]; 0.3162 µM) | relative viability ([1]; 1 µM) | relative viability ([2]; 0.01 µM) | relative viability ([2]; 0.03162 µM) | relative viability ([2]; 0.1 µM) | relative viability ([2]; 0.3162 µM) | relative viability ([2]; 0.5 µM, anchor plate) | relative viability ([2]; 1 µM) | relative viability ([3]; first compound 0.03162 µM) | relative viability ([3]; first compound 0.1 µM) | relative viability ([3]; first compound 0.3162 µM) | relative viability ([3]; first compound 1 µM) | relative viability ([4]; first compound 0.01 µM) | relative viability ([4]; first compound 0.03162 µM) | relative viability ([4]; first compound 0.1 µM) | relative viability ([4]; first compound 0.3162 µM) | relative viability ([4]; first compound 1 µM) |
| --- | --- | --- | --- | --- | --- | --- | --- | --- | --- | --- | --- | --- | --- | --- | --- | --- | --- | --- | --- |
| NCI-H2342 | 0.938 | 0.94 | 0.86 | 0.992 | 0.975 | 0.949 | 0.966 | 0.843 | 0.622 | 0.649 | 1.14 | 0.943 | 1.05 | 0.942 |  |  |  |  |  |
| NCI-H460 | 0.983 | 1 | 0.87 | 0.975 | 1.03 | 0.973 | 1.01 | 0.917 | 0.701 | 0.704 | 0.96 | 0.982 | 0.909 | 1.05 | 1.11 | 0.716 | 0.814 | 0.536 | 0.102 |
| NCI-H441 | 0.899 | 0.963 | 0.787 | 0.931 | 1.19 | 1.05 | 0.984 | 0.963 | 0.636 | 0.474 | 0.962 | 0.696 | 0.919 | 0.912 |  |  |  |  |  |
| ChaGo-K-1 | 0.958 | 1.02 | 0.863 | 1.01 | 0.989 | 0.91 | 0.959 | 0.9 | 0.63 | 0.859 | 0.885 | 0.938 | 0.85 | 0.901 |  |  |  |  |  |
| SW 900 | 0.69 | 0.843 | 0.808 | 0.756 | 0.618 | 0.925 | 0.744 | 0.812 | 0.627 | 0.47 | 1.11 | 0.693 | 0.801 | 0.924 |  |  |  |  |  |
| NCI-H1792 | 0.776 | 0.904 | 0.624 | 0.914 | 0.658 | 0.841 | 0.843 | 0.709 | 0.784 | 0.374 |  |  |  |  | 0.749 | 0.826 | 0.815 | 0.739 | 0.213 |
| NCI-H522 | 0.913 | 0.959 | 0.852 | 0.867 | 1 | 1.03 | 0.819 | 0.767 | 0.745 | 0.77 |  |  |  |  |  |  |  |  |  |
| NCI-H1623 | 0.977 |  | 1.23 | 0.99 | 1.1 | 0.912 | 1.02 | 0.77 | 0.433 | 0.427 | 0.896 |  | 1.03 | 0.768 |  |  |  |  |  |
| NCI-H1648 | 0.819 | 0.717 | 1.4 | 0.833 | 0.868 | 0.602 | 0.683 | 0.724 | 0.266 | 0.532 |  |  |  |  |  |  |  |  |  |
| HCC-44 | 0.899 | 0.955 | 0.758 | 1.07 | 0.975 | 0.963 | 0.928 | 0.871 | 0.634 | 0.739 |  |  |  |  | 1.05 | 0.975 | 0.93 | 0.85 | 0.444 |
| LCLC-103H | 0.958 | 0.952 | 0.91 | 0.883 | 1.03 | 1.02 | 0.903 | 0.871 | 0.473 | 0.749 | 0.668 | 0.685 | 0.704 | 0.69 |  |  |  |  |  |
